In patent US10173991B2, “Sulfone amide linked benzothiazole inhibitors of endothelial lipase” (BRISTOL-MYERS SQUIBB COMPANY, priority 2014, dated 2019):

Each compound was assayed against Endothelial lipase (EL) (Homo sapiens (Human), UniProt Q9Y5X9) (assay: Endothelial lipase (EL) enzymatic assay with fluorescent substrate A10070 in DMPG vesicles). Settings: not given.
Assay type: biochemical
How it was run: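 Compounds were preincubated with enzyme for 30 min at 37° C before FRET-substrate vesicles (A10070 in DMPG, 0.11 mole fraction) were added. Reaction rates were obtained from the 300–900 sec slope of fluorescence at 490/530 nm.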

Sequence of Endothelial lipase (EL) (Q9Y5X9 21-500): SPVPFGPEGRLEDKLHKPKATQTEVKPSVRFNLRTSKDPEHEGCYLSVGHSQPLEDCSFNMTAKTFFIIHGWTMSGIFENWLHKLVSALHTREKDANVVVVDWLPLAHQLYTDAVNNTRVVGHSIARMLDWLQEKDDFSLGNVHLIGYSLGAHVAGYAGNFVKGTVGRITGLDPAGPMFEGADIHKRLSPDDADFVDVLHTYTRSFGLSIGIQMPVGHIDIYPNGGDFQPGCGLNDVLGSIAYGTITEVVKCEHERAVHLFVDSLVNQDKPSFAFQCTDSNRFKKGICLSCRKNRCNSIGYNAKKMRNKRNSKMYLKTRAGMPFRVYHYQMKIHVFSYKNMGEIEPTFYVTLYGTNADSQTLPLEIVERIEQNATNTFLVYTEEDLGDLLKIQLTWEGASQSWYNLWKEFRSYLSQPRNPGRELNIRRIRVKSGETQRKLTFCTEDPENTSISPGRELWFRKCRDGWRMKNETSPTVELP

| IC50 | Structure (SMILES) |
| --- | --- |
| 35 nM | COCCS(=O)(=O)C(C(=O)NCC(=O)NC1CC1)c1nc2cc(F)c(-c3ccc4c(c3)OCC(=O)N4)cc2s1 (stereo not drawn) [Example 417, N-[(cyclopropyl-carbamoyl)methyl]-2-[5-fluoro-6-(3-oxo-3,4-dihydro-2H-1,4-benzoxazin-7-yl)-1,3-benzothiazol-2-yl]-2-(2-methoxyethane-sulfonyl)acetamide] |
| 9 nM | COCCS(=O)(=O)C(C(=O)NCC(=O)NC1CC1)c1nc2cc(F)c(-c3ccc4c(c3)CCCN4C(=O)OC(C)(C)C)cc2s1 (stereo not drawn) [Example 418, tert-butyl 6-[2-({[(cyclopropyl-carbamoyl)methyl]carbamoyl}(2-methoxyethane-sulfonyl)methyl)-5-fluoro-1,3-benzothiazol-6-yl]-1,2,3,4-tetrahydro-quinoline-1-carboxylate] |
| 9 nM | COCCS(=O)(=O)C(C(=O)NCC(=O)NC1CC1)c1nc2cc(F)c(-c3ccc4c(c3)OCCN4C(=O)OCc3ccccc3)cc2s1 (stereo not drawn) [Example 419, benzyl 7-[2-({[(cyclopropyl-carbamoyl)methyl]carbamoyl}(2-methoxyethane-sulfonyl)methyl)-5-fluoro-1,3-benzothiazol-6-yl}-3,4-dihydro-2H-1,4-benzoxazine-4-carboxylate] |
| 11 nM | COCCS(=O)(=O)C(C(=O)NCC(=O)NC1CC1)c1nc2cc(F)c(-c3ccc(-c4nn[nH]n4)c(F)c3)cc2s1 (stereo not drawn) [Example 420, N-[(cyclopropyl-carbamoyl)methyl]-2-{5-fluoro-6-[3-fluoro-4-(2H-1,2,3,4-tetrazol-5-yl)phenyl]-1,3-benzothiazol-2-yl}-2-(2-methoxyethane-sulfonyl)acetamide] |
| 3 nM | COC(=O)Nc1ccc(-c2cc3sc(C(C(=O)NCC(=O)NC4CC4)S(=O)(=O)CCN4CCOCC4)nc3cc2F)cc1 (stereo not drawn) [Example 422, methyl N-{4-[2-({[(cyclopropyl-carbamoyl)methyl]carbamoyl}[2-(morpholin-4-yl)ethanesulfonyl]methyl)-5-fluoro-1,3-benzothiazol-6-yl]phenyl} carbamate] |
| 1 nM | O=C(CNC(=O)C(c1nc2cc(F)c(-c3ccc(NC(=O)OCc4ccccc4)cc3)cc2s1)S(=O)(=O)CCN1CCOCC1)NC1CC1 (stereo not drawn) [Example 423, benzyl N-{4-[2-({[(cyclopropyl-carbamoyl)methyl]carbamoyl}[2-(morpholin-4-yl)ethanesulfonyl]methyl)-5-fluoro-1,3-benzothiazol-6-yl]phenyl} carbamate] |
| 15 nM | O=C(CNC(=O)C(c1nc2cc(F)c(-c3ccc(NC(=O)OCc4ccccc4)nc3)cc2s1)S(=O)(=O)CCN1CCOCC1)NC1CC1 (stereo not drawn) [Example 424, benzyl N-{5-[2-({[(cyclopropyl-carbamoyl)methyl]carbamoyl}[2-(morpholin-4-yl)ethanesulfonyl]methyl)-5-fluoro-1,3-benzothiazol-6-yl]pyridin-2-yl} carbamate] |
| 62 nM | CC(C)c1cc(CNC(=O)c2ccc3sc(C(C(=O)NCC(=O)NC4CC4)S(=O)(=O)Cc4ccc(F)cc4)nc3c2)on1 (stereo not drawn) [Example 426, 2-({[(cyclopropyl-carbamoyl)methyl]carbamoyl}(4-fluorophenyl)methanesulfonyl-methyl)-N-{[3-(propan-2-yl)-1,2-oxazol-5-yl]methyl}-1,3-benzothiazole-5-carboxamide] |
| 66 nM | COCCS(=O)(=O)C(C(=O)NCC(=O)NC1CC1)c1nc2cc(C(=O)OC(C)(C)C)ccc2s1 (stereo not drawn) [Example 427, tert-butyl 2-({[(cyclopropyl-carbamoyl)methyl]carbamoyl}(2-methoxyethane-sulfonyl)methyl)-1,3-benzothiazole-5-carboxylate] |
| 12 nM | COCCS(=O)(=O)C(C(=O)NCC(=O)NC1CC1)c1nc2cc(C(=O)OC(C)(C)C)c(F)cc2s1 (stereo not drawn) [Example 428, tert-butyl 2-({[(cyclopropyl-carbamoyl)methyl]carbamoyl}(2-methoxyethane-sulfonyl)methyl)-6-fluoro-1,3-benzothiazole-5-carboxylate] |
| 69 nM | COCCS(=O)(=O)C(C(=O)NCC(=O)NC1CC1)c1nc2cc(C(=O)N3CC(C)(OC)C3)c(F)cc2s1 (stereo not drawn) [Example 429, N-[(cyclopropyl-carbamoyl)methyl]-2-[6-fluoro-5-(3-methoxy-3-methylazetidine-1-carbonyl)-1,3-benzothiazol-2-yl}-2-(2-methoxyethane-sulfonyl)acetamide] |
| 3 nM | COCCNC(=O)c1ccc(-c2ccc3nc(C(C(=O)NCC(=O)NC4CC4)S(=O)(=O)c4ccccc4)sc3c2)cc1 (stereo not drawn) [Example 431, 4-{2-[(benzenesulfonyl) ({[(cyclopropyl-carbamoyl)methyl]carbamoyl})methyl]-1,3-benzothiazol-6-yl}-N-(2-methoxyethyl) benzamide] |
| 61 nM | O=C(CNC(=O)C(c1nc2ccc(-c3cncnc3)cc2s1)S(=O)(=O)c1ccccc1)NC1CC1 (stereo not drawn) [Example 432, 2-(benzenesulfonyl)-N-[(cyclopropyl-carbamoyl)methyl]-2-[6-(pyrimidin-5-yl)-1,3-benzothiazol-2-yl]acetamide] |
| 14 nM | O=C(CNC(=O)C(c1nc2ccc(-c3ccc(F)nc3)cc2s1)S(=O)(=O)c1ccccc1)NC1CC1 (stereo not drawn) [Example 434, 2-(benzenesulfonyl)-N-[(cyclopropyl-carbamoyl)methyl]-2-[6-(6-fluoropyridin-3-yl)-1,3-benzothiazol-2-yl] acetamide] |
| 12 nM | O=C(CNC(=O)C(c1nc2cc(-c3cncnc3)ccc2s1)S(=O)(=O)c1ccccc1)NC1CC1 (stereo not drawn) [Example 435, 2-(benzenesulfonyl)-N-[(cyclopropyl-carbamoyl)methyl]-2-[5-(pyrimidin-5-yl)-1,3-benzothiazol-2-yl]acetamide] |
| 13 nM | CC(=O)NCc1ccc(-c2ccc3sc(C(C(=O)NCC(=O)NC4CC4)S(=O)(=O)c4ccccc4)nc3c2)cc1 (stereo not drawn) [Example 436, 2-(benzenesulfonyl)-N-[(cyclopropyl-carbamoyl)methyl]-2-{5-[4-(acetamidomethyl)phenyl]-1,3-benzothiazol-2-yl} acetamide] |
| 13 nM | O=C(CNC(=O)C(c1nc2cc(-c3ccc(F)nc3)ccc2s1)S(=O)(=O)c1ccccc1)NC1CC1 (stereo not drawn) [Example 437, 2-(benzenesulfonyl)-N-[(cyclopropyl-carbamoyl)methyl]-2-[5-(6-fluoropyridin-3-yl)-1,3-benzothiazol-2-yl] acetamide] |
| 33 nM | Cc1cccc(S(=O)(=O)C(C(=O)NCC(=O)NC2CC2)c2nc3cc(-c4ccc(F)nc4)ccc3s2)c1 (stereo not drawn) [Example 438, N-[(cyclopropyl-carbamoyl)methyl]-2-[5-(6-fluoropyridin-3-yl)-1,3-benzothiazol-2-yl]-2-(3-methylbenzene-sulfonyl)acetamide] |
| 48 nM | Cn1ccc(-c2ccc3sc(C(C(=O)NCC(=O)NC4CC4)S(=O)(=O)c4ccccc4)nc3c2)cc1=O (stereo not drawn) [Example 439, 2-(benzenesulfonyl)-N-[(cyclopropyl-carbamoyl)methyl]-2-[5-(1-methyl-2-oxo-1,2-dihydropyridin-4-yl)-1,3-benzothiazol-2-yl]acetamide] |
| 87 nM | O=C(CNC(=O)C(c1nc2cc(F)c(-c3cncnc3)cc2s1)S(=O)(=O)c1ccccc1F)NC1CC1 (stereo not drawn) [Example 441, N-[(cyclopropyl-carbamoyl)methyl]-2-[5-fluoro-6-(pyrimidin-5-yl)-1,3-benzothiazol-2-yl]-2-(2-fluorobenzene-sulfonyl)acetamide] |
| 10 nM | CC(=O)NCc1ccc(-c2cc3sc(C(C(=O)NCC(=O)NC4CC4)S(=O)(=O)c4ccc(F)c(F)c4)nc3cc2F)cc1 (stereo not drawn) [Example 442, N-[(cyclopropyl-carbamoyl)methyl]-2-(3,4-difluorobenzene-sulfonyl)-2-{6-[4-(acetamidomethyl)phenyl]-5-fluoro-1,3-benzothiazol-2-yl}acetamide] |
| 37 nM | Cc1cc(-c2cc3sc(C(C(=O)NCC(=O)NC4CC4)S(=O)(=O)c4cccc(Cl)c4)nc3cc2F)cnn1 (stereo not drawn) [Example 443, 2-(3-chlorobenzene-sulfonyl)-N-[(cyclopropyl-carbamoyl)methyl]-2-[5-fluoro-6-(6-methylpyridazin-4-yl)-1,3-benzothiazol-2-yl}acetamide] |
| 5 nM | CC(=O)NCc1ccc(-c2cc3sc(C(C(=O)NCC(=O)NC4CC4)S(=O)(=O)c4cccc(Cl)c4)nc3cc2F)cc1 (stereo not drawn) [Example 444, 2-(3-chlorobenzene-sulfonyl)-N-[(cyclopropyl-carbamoyl)methyl]-2-{6-[4-(acetamidomethyl)phenyl]-5-fluoro-1,3-benzothiazol-2-yl}acetamide] |
| 59 nM | O=C(CNC(=O)C(c1nc2cc(F)c(-c3cncnc3)cc2s1)S(=O)(=O)c1ccc(F)c(F)c1)NC1CC1 (stereo not drawn) [Example 445, N-[(cyclopropyl-carbamoyl)methyl]-2-(3,4-difluorobenzene-sulfonyl)-2-[5-fluoro-6-(pyrimidin-5-yl)-1,3-benzothiazol-2-yl]acetamide] |

Same assay, conditions: EL from conditioned media of HT-1080 cells; 30 min preincubation at 37° C.

| IC50 | Structure (SMILES) |
| --- | --- |
| 22 nM | O=C(CNC(=O)C(c1nc2cc(F)c(-c3ccc(F)nc3)cc2s1)S(=O)(=O)CCN1CCOCC1)NC1CC1 (stereo not drawn) [Example 421, N-[(Cyclopropylcarbamoyl)methyl]-2-[5-fluoro-6-(6-fluoropyridin-3-yl)-1,3-benzothiazol-2-yl]-2-[2-(morpholin-4-yl)ethanesulfonyl]acetamide] |
| 204 nM | COCCS(=O)(=O)C(C(=O)NCC(=O)NC1CC1)c1nc2cc(C(=O)N3CCOCC3)c(F)cc2s1 (stereo not drawn) [Example 425, N-(2-(Cyclopropylamino)-2-oxoethyl)-2-(6-fluoro-5-(morpholine-4-carbonyl)benzo[d]thiazol-2-yl)-2-((2-methoxyethyl)sulfonyl)acetamide] |
| 6.6 nM | O=C(CNC(=O)C(c1nc2ccc(-c3ccccc3)cc2s1)S(=O)(=O)c1ccccc1)NC1CC1 (stereo not drawn) [Example 430, 2-(Benzenesulfonyl)-N-[(cyclopropylcarbamoyl)methyl]-2-(6-phenyl-1,3-benzothiazol-2-yl)acetamide] |
